Measurements as given in patent US20140005163A1 (NOVARTIS AG, priority 2010, published 2014).

Legend:
[1] = test system: PKB Ser473 phosphorylation in Rat1-myr-HA-p110 beta cells; experiment: Reverse protein array assay, PKB Ser473 phosphorylation in Rat1-myr-p110 beta cells; assay type: cell-based; conditions: 0.5 h, pAkt Ser473, 30 minutes incubation, read-out: p-PKB IC50
In short: (§1)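 Compound exposure lasted 30 min in Rat1 cells bearing membrane-targeted HA-p110 isoforms, using 8 serial concentrations. Arrayed lysates, each spotted at four dilutions, gave relative fluorescence signals for phospho-Ser473 PKB.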

[2] = test system: S6 Ribosomal Protein phosphorylation Ser235/236 in TSC1 null mouse embryo fibroblast (MEF) cells; experiment: Reverse protein array assay, S6 Ribosomal Protein phosphorylation Ser235/236 in TSC1 null MEF cells; assay type: cell-based; conditions: 1 h, pS6 ribosomal protein Ser235/236, 60 minutes incubation, read-out: p-S6 IC50
In short: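 TSC1−/− MEFs, seeded and held ≥20 h at 37 °C/5% CO2, were exposed to 8-step serial compound dilutions (0.02% DMSO final; DMSO vehicle control) for 60 min at 37 °C. Cells were then lysed on ice for 10 min and lysates spotted onto reverse protein array chips.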

[3] = test system: PKB Ser473 phosphorylation in Rat1-myr-HA-p110 alpha cells; experiment: Reverse protein array assay, PKB Ser473 phosphorylation in Rat1-myr-p110 alpha cells; assay type: cell-based; conditions: 0.5 h, pAkt Ser473, 30 minutes compound incubation, read-out: p-PKB IC50
In short: as §1

PI3K delta = target: T1, PI3K delta (Homo sapiens, UniProt O00329); experiment: PI3K delta kinase assay (Kinase-Glo luminescence); assay type: biochemical
T1 construct: for the full-length p110-d subunit are generated and fused by overlapping PCR; p85(iSH2) fusion partner (see partner chain) (N); His tag (C); made in house; host or cells: baculovirus; Tn5 (Trichoplusia ni) or TiniPro insect cells
In short: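 ATP 1 μM, PI 10 μg/mL, PI3Kδ construct BV1060 10 nM (final); 10 mM Tris pH 7.5, 3 mM MgCl2, 50 mM NaCl, 0.05% CHAPS, 1 mM DTT; 60 min RT; Kinase-Glo stop, luminescence.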

T1 sequence (O00329 with tags, fused parts or gaps limits assumed): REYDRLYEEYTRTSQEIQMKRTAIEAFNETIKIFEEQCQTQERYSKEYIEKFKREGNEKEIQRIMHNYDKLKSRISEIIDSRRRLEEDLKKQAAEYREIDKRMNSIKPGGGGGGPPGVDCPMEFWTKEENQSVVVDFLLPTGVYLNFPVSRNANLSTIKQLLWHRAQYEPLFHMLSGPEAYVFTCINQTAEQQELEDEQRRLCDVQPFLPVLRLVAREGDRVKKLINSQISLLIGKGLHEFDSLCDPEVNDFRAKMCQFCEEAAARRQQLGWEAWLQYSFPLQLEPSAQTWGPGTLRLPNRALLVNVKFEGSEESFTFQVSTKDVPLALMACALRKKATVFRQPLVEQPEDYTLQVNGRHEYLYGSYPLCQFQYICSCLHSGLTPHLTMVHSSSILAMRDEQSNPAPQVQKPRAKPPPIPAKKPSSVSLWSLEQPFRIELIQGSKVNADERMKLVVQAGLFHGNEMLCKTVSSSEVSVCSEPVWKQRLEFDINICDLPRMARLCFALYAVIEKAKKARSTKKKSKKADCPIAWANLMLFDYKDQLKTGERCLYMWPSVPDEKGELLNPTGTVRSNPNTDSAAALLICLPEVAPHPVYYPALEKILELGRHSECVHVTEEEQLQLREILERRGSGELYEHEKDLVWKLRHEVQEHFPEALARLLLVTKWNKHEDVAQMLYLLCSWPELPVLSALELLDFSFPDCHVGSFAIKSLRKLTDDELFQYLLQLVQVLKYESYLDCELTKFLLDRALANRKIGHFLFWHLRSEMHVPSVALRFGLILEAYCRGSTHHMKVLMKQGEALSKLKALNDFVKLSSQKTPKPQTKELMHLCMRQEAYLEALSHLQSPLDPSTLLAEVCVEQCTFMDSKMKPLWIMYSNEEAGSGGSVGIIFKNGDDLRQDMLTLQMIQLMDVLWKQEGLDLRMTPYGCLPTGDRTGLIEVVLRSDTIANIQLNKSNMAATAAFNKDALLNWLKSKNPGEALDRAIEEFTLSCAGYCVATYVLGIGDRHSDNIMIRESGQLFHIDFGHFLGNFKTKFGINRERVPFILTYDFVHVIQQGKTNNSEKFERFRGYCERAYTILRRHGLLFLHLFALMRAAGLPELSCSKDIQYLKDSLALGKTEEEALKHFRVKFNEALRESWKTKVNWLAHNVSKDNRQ

| IC50 [1] [nM] | IC50 [3] [nM] | IC50 (PI3K delta) [nM] | Compound | IC50 [2] [nM] |
| --- | --- | --- | --- | --- |
| 14 | 8 | 18 | CNc1ccc(-c2ccc3ncc4c(c3c2)n(-c2cn(C(C)C)nc2C)c(=O)n4C)cn1 [Example 118.1, 1-(1-isopropyl-3-methyl-1H-pyrazol-4-yl)-3-methyl-8-(6-methylamino-pyridin-3-yl)-1,3-dihydro-imidazo[4,5-c]quinolin-2-one] | 5 |
| 52 | 28 | 777 | CCN(CC)C(=O)Cn1cc(-n2c(=O)n(C)c3cnc4ccc(-c5cnc(N6CCCC6)nc5)cc4c32)c(C)n1 [Example 247.1, N,N-Diethyl-2-{3-methyl-4-[3-methyl-2-oxo-8-(2-pyrrolidin-1-yl-pyrimidin-5-yl)-2,3-dihydro-imidazo[4,5-c]quinolin-1-yl]-pyrazol-1-yl}-acetamide] | 3 |
| 17 | 6 | 15 | CNc1cc(-c2ccc3ncc4c(c3c2)n(-c2cn(C)nc2C)c(=O)n4C)cnc1CO [Example 158.1, 1-(1,3-Dimethyl-1H-pyrazol-4-yl)-8-(6-hydroxymethyl-5-methylamino-pyridin-3-yl)-3-methyl-1,3-dihydro-imidazo[4,5-c]quinolin-2-one] | 8 |
| 103 | 18 | 6 | CCn1cc(-n2c(=O)n(C)c3cnc4ccc(-c5cncc(C6(C#N)CCC6)c5)cc4c32)c(C)n1 [Example 221.2, 1-{5-[1-(1-Ethyl-3-methyl-1H-pyrazol-4-yl)-3-methyl-2-oxo-2,3-dihydro-1H-imidazo[4,5-c]quinolin-8-yl]-pyridin-3-yl}-cyclobutanecarbonitrile] | 1 |
| 10 | 9 | < 3 | COc1cc(-c2ccc3ncc4c(c3c2)n(-c2cn(C)nc2Cl)c(=O)n4C)cnc1CO [Example 194.2, 1-(3-chloro-1-methyl-1H-pyrazol-4-yl)-8-(6-hydroxymethyl-5-methoxy-pyridin-3-yl)-3-methyl-1,3-dihydro-imidazo[4,5-c]quinolin-2-one] | 2 |
| 43 | 107 | 84 | CNc1ccc(-c2ccc3ncc4c(c3c2)n(-c2cn(CC(=O)N(C)C)nc2C)c(=O)n4C)cn1 [Example 118.3, N,N-Dimethyl-2-{3-methyl-4-[3-methyl-8-(6-methylamino-pyridin-3-yl)-2-oxo-2,3-dihydro-imidazo[4,5-c]quinolin-1-yl]-pyrazol-1-yl}-acetamide] | 15 |

The next lines start with the compound.

| Compound | IC50 [1] [nM] | IC50 [3] [nM] | IC50 (PI3K delta) [nM] | IC50 [2] [nM] |
| --- | --- | --- | --- | --- |
| CC(=O)Nc1cc(-c2ccc3ncc4c(c3c2)n(-c2cn(C)nc2C)c(=O)n4C)cnc1Cl [Example 222, N-{2-Chloro-5-[1-(1,3-dimethyl-1H-pyrazol-4-yl)-3-methyl-2-oxo-2,3-dihydro-1H-imidazo[4,5-c]quinolin-8-yl]-pyridin-3-yl}-acetamide] | 52 | 55 | 82 | 4 |
| COc1ccc(-c2ccc3ncc4c(c3c2)n(-c2cn(CC(=O)N(C)C)nc2C)c(=O)n4C)cn1 [Example 102, 2-{4-[8-(6-Methoxy-pyridin-3-yl)-3-methyl-2-oxo-2,3-dihydro-imidazo[4,5-c]quinolin-1-yl]-3-methyl-pyrazol-1-yl}-N,N-dimethyl-acetamide] | 34 | 33 | 26 | < 5 |
| Cc1nn(C)cc1-n1c(=O)n(C)c2cnc3ccc(-c4cnc(N)nc4)cc3c21 [Example 81.1, 8-(2-Amino-pyrimidin-5-yl)-1-(1,3-dimethyl-1H-pyrazol-4-yl)-3-methyl-1,3-dihydro-imidazo[4,5-c]quinolin-2-one] | 18 | 13 | 39 | 1.69 |
| Cc1nn(C)cc1-n1c(=O)n(C)c2cnc3ccc(-c4cc(O)cc(C(F)(F)F)c4)cc3c21 [Example 34, 1-(1,3-Dimethyl-1H-pyrazol-4-yl)-8-(3-hydroxy-5-trifluoromethyl-phenyl)-3-methyl-1,3-dihydro-imidazo[4,5-c]quinolin-2-one] | 153 | 138 | 7 | 3.56 |
| CCNc1cc(-c2ccc3ncc4c(c3c2)n(-c2cn(C)nc2C)c(=O)n4C)cnc1COC [Example 156, 1-(1,3-Dimethyl-1H-pyrazol-4-yl)-8-(5-ethylamino-6-methoxymethyl-pyridin-3-yl)-3-methyl-1,3-dihydro-imidazo[4,5-c]quinolin-2-one] | 5 | 10 | 17 | 1 |
| CCCOc1ccc(-c2ccc3ncc4c(c3c2)n(-c2cn(C)nc2C)c(=O)n4C)cn1 [Example 55, 1-(1,3-Dimethyl-1H-pyrazol-4-yl)-3-methyl-8-(6-propoxy-pyridin-3-yl)-1,3-dihydro-imidazo[4,5-c]quinolin-2-one] | 21 | 20 | 132 | 18 |
| CCn1cc(-n2c(=O)n(C)c3cnc4ccc(-c5ccc(COC)nc5)cc4c32)c(C)n1 [Example 104, 1-(1-Ethyl-3-methyl-1H-pyrazol-4-yl)-8-(6-methoxymethyl-pyridin-3-yl)-3-methyl-1,3-dihydro-imidazo[4,5-c]quinolin-2-one] | 37 | 71 | 141 | 39 |
| Cc1nn(C(C)C)cc1-n1c(=O)n(C)c2cnc3ccc(-c4cnc(N(C)C)nc4)cc3c21 [Example 6.1, 8-(2-Dimethylamino-pyrimidin-5-yl)-1-(1-isopropyl-3-methyl-1H-pyrazol-4-yl)-3-methyl-1,3-dihydro-imidazo[4,5-c]quinolin-2-one] | 43 | 61 | 28 | 33 |
| Cc1nn(C)cc1-n1c(=O)n(C)c2cnc3ccc(-c4cnc(F)c(N(C)C)c4)cc3c21 [Example 151, 8-(5-Dimethylamino-6-fluoro-pyridin-3-yl)-1-(1,3-dimethyl-1H-pyrazol-4-yl)-3-methyl-1,3-dihydro-imidazo[4,5-c]quinolin-2-one] | 22 | 21 | 5 | 4 |
| Cc1nn(C(C)C)cc1-n1c(=O)n(C)c2cnc3ccc(-c4ccc(C(N)=O)nc4)cc3c21 [Example 112, 5-[1-(1-Isopropyl-3-methyl-1H-pyrazol-4-yl)-3-methyl-2-oxo-2,3-dihydro-1H-imidazo[4,5-c]quinolin-8-yl]-pyridine-2-carboxylic acid amide] | 73 | 24 | 209 | 60 |
| Cc1nn(C(C)C)cc1-n1c(=O)n(C)c2cnc3ccc(-c4cncc(C(O)(CF)CF)c4)cc3c21 [Example 219, 8-[5-(2-Fluoro-1-fluoromethyl-1-hydroxy-ethyl)-pyridin-3-yl]-1-(1-isopropyl-3-methyl-1H-pyrazol-4-yl)-3-methyl-1,3-dihydro-imidazo[4,5-c]quinolin-2-one] | 497 | 52 | 13 | 6 |
| CCOC(C)(C)c1cncc(-c2ccc3ncc4c(c3c2)n(-c2cn(C)nc2C)c(=O)n4C)c1 [Example 240, 1-(1,3-Dimethyl-1H-pyrazol-4-yl)-8-[5-(1-ethoxy-1-methyl-ethyl)-pyridin-3-yl]-3-methyl-1,3-dihydro-imidazo[4,5-c]quinolin-2-one] | 128 | 72 | < 3 | 11 |
